Data on ten compounds can be found in ChEMBL document CHEMBL3585323, “Effect of intercalator substituent and nucleotide sequence on the stability of DNA- and RNA-naphthalimide complexes” (Bioorg Med Chem, 2015).

Assay [1] relates to Nucleic Acid. Description: Induction of DNA intercalation using 5'-r(GCGCGCGC)2-3' at 250 uM by UV-vis spectrophotometric analysis. In kind it is nucleic-acid assay.
Assay [2] in a line: Binding affinity to 5'-d(ATATAGTATATA)-3'/5'-(TATATACTATAT)-3' DNA assessed as change in melting temperature at 1:1 DNA to compound molar ratio by spectrophotometric analysis.
Assay [3] in a line: Binding affinity to 5'-d(GTCCGTCGGAC)-3'/5'-(GTCCGACGGAC)-3' DNA assessed as change in melting temperature at 1:1 DNA to compound molar ratio by spectrophotometric analysis.
For assay [4], the system named is Nucleic Acid. Kind of assay: Induction of DNA intercalation using 5'-d(GTCCGTCGGAC)-3'/5'-(GTCCGACGGAC)-3' at 250 uM by UV-vis spectrophotometric analysis. It is filed as nucleic-acid assay.
Assay [5] deals with Nucleic Acid. Description: Induction of DNA intercalation using 5'-d(GTAATATTAC)2-3' at 250 uM by UV-vis spectrophotometric analysis. In kind it is nucleic-acid assay.
Assay [6] can be described thus: Binding affinity to 5'-d(GTCCGCGGAC)2-3' DNA assessed as change in melting temperature at 1:1 DNA to compound molar ratio by spectrophotometric analysis.
Assay [7] concerns Nucleic Acid. Kind of assay: Induction of DNA intercalation using 5'-r(GUCCGCGGAC)2-3' at 250 uM by UV-vis spectrophotometric analysis. In kind it is nucleic-acid assay.
Assay [8] in a line: Binding affinity to 5'-r(GUCCGCGGAC)2-3' DNA assessed as change in melting temperature at 1:1 DNA to compound molar ratio by spectrophotometric analysis.
Assay [9] deals with Nucleic Acid. Description: Induction of DNA intercalation using 5'-d(ATATATGATATA)-3'/5'-(TATATCATATAT)-3' at 250 uM by UV-vis spectrophotometric analysis. It is filed as nucleic-acid assay.
Assay [10] deals with Nucleic Acid. Description: Induction of DNA intercalation using 5'-d(ATATAGTATATA)-3'/5'-(TATATACTATAT)-3' at 250 uM by UV-vis spectrophotometric analysis. It is filed as nucleic-acid assay.
Assay [11] can be described thus: Binding affinity to 5'-d(ATATATATATAT)2-3' DNA assessed as change in melting temperature at 1:1 DNA to compound molar ratio by spectrophotometric analysis.
The nature of assay [12]: Binding affinity to 5'-d(GTAATATTAC)2-3' DNA assessed as change in melting temperature at 1:1 DNA to compound molar ratio by spectrophotometric analysis.
The subject of assay [13] is Nucleic Acid. Description: Induction of DNA intercalation using 5'-d(ATATATATATAT)2-3' at 250 uM by UV-vis spectrophotometric analysis. In kind it is nucleic-acid assay.
Assay [14] in a line: Binding affinity to 5'-r(GCGCGCGC)2-3' DNA assessed as change in melting temperature at 1:1 DNA to compound molar ratio by spectrophotometric analysis.
The nature of assay [15]: Binding affinity to 5'-d(GCGCGCGC)2-3' DNA assessed as change in melting temperature at 1:1 DNA to compound molar ratio by spectrophotometric analysis.
Assay [16] can be described thus: Binding affinity to 5'-d(ATATATGATATA)-3'/5'-(TATATCATATAT)-3' DNA assessed as change in melting temperature at 1:1 DNA to compound molar ratio by spectrophotometric analysis.
For assay [17], the system named is Nucleic Acid. Description: Induction of DNA intercalation using 5'-d(GCGCGCGC)2-3' at 250 uM by UV-vis spectrophotometric analysis. In kind it is nucleic-acid assay.
The test system of assay [18] is Nucleic Acid. Description: Induction of DNA intercalation using 5'-d(GTCCGCGGAC)2-3' at 250 uM by UV-vis spectrophotometric analysis. In kind it is nucleic-acid assay.
Assay [19] concerns Nucleic Acid. Kind of assay: Induction of DNA intercalation using 5'-d(CGATCG)2-3' at 1:0.5 DNA to compound molar ratio by NMR analysis. It is filed as nucleic-acid assay.

The structures appear in SMILES notation. Activity calls are given as the source filed them. No cut-off for these calls is given here.

Take `CN(C)CCN1C(=O)c2cccc3cc(O)cc(c23)C1=O`: the result with Nucleic Acid [1], in the assay on Nucleic Acid [4], in the assay with Nucleic Acid [5], in the assay with Nucleic Acid [7], with Nucleic Acid [9] and with Nucleic Acid [10] was Active. Also, the result with Nucleic Acid [13], in the assay on Nucleic Acid [17] and in the assay with Nucleic Acid [18] was Active. The ΔTm in assay [2] turned out to be 5.7 °C; in assay [3] it was 2.2 °C; in assay [6], 1.6 °C; in [8], 0 °C; in assay [11] it was 0 °C; in assay [12], 4.4 °C. Also, the ΔTm was found to be 0 °C in assay [14], 1.6 °C in assay [15] and 14.7 °C in [16].
Regarding `CN(C)CCN1C(=O)c2cccc3cc(I)cc(c23)C1=O`, the outcome with Nucleic Acid [1], with Nucleic Acid [4], in the assay with Nucleic Acid [5], with Nucleic Acid [7], in the assay on Nucleic Acid [9] and in the assay with Nucleic Acid [10] was Active. For the same compound, the result in the assay on Nucleic Acid [13], with Nucleic Acid [17] and with Nucleic Acid [18] was Active. Besides, the thermal shift (ΔTm) is 1.7 °C in assay [2]; 0 °C in [3]; 0 °C in assay [6]; 0 °C in assay [8]; 0 °C in [11]; 4.4 °C in assay [12]. Moreover, the ΔTm in [14] was determined as 0 °C; in assay [15], 2.5 °C; in assay [16] it was 8.4 °C.
For the compound `CN(C)CCN1C(=O)c2cccc3cc(-c4ccccc4)cc(c23)C1=O`, the outcome in the assay on Nucleic Acid [1], in the assay on Nucleic Acid [4], in the assay on Nucleic Acid [5], in the assay with Nucleic Acid [7], in the assay with Nucleic Acid [9] and in the assay on Nucleic Acid [10] was Active. The result in the assay with Nucleic Acid [13], in the assay on Nucleic Acid [17] and with Nucleic Acid [18] was Active. The ΔTm in assay [2] was determined as 5.8 °C; in assay [3], 0 °C; in [6], 0 °C; in assay [8], 0 °C; in assay [11], 0 °C; in [12] it was 0 °C. Besides, the ΔTm came out at 0 °C in assay [14], 0 °C in assay [15] and 1.3 °C in assay [16].
Turning to `CN(C)CCN1C(=O)c2cccc3cccc(c23)C1=O`, the result with Nucleic Acid [1], in the assay with Nucleic Acid [4], with Nucleic Acid [5], with Nucleic Acid [7], in the assay with Nucleic Acid [9] and with Nucleic Acid [10] was Active. Further, the result in the assay on Nucleic Acid [13], with Nucleic Acid [17] and in the assay on Nucleic Acid [18] was Active. Also, the ΔTm in [2] amounted to 11.6 °C; in [3], 0 °C; in assay [6], 5.6 °C; in assay [8], 0 °C; in [11] it was 0 °C; in assay [12], 8.1 °C. In addition, the ΔTm amounted to 0 °C in assay [14], 8.7 °C in assay [15] and 19.4 °C in [16].
Take `CC(C)Nc1cc2c3c(cccc3c1)C(=O)N(CCN(C)C)C2=O`: the outcome in the assay on Nucleic Acid [1], in the assay on Nucleic Acid [4], with Nucleic Acid [5], in the assay with Nucleic Acid [7], in the assay with Nucleic Acid [9] and with Nucleic Acid [10] was Active. For the same compound, the outcome in the assay on Nucleic Acid [13], in the assay with Nucleic Acid [17] and in the assay on Nucleic Acid [18] was Active. Further, the ΔTm was found to be 0 °C in assay [2]; 2.1 °C in [3]; 0 °C in [6]; 1.1 °C in assay [8]; 0 °C in assay [11]; 7.3 °C in assay [12]. In addition, the ΔTm in [14] worked out at 0 °C; in assay [15] it was 7.9 °C; in [16], 16.4 °C.
Take `CC(=O)Nc1cc2c3c(cccc3c1)C(=O)N(CCN(C)C)C2=O`: the outcome with Nucleic Acid [1], in the assay on Nucleic Acid [4], with Nucleic Acid [5], in the assay on Nucleic Acid [7], in the assay with Nucleic Acid [9] and with Nucleic Acid [10] was Active. Moreover, the result in the assay on Nucleic Acid [13], in the assay with Nucleic Acid [17] and in the assay with Nucleic Acid [18] was Active. The ΔTm in assay [2] worked out at 4.7 °C; in assay [3], 0 °C; in assay [6], 5.6 °C; in assay [8], 0 °C; in assay [11] it was 0 °C; in [12] it was 8.6 °C. The ΔTm in assay [14] turned out to be 0 °C; in assay [15] it was 4.6 °C; in [16], 8.8 °C.
As for `CN(C)CCN1C(=O)c2cccc3cc(Br)cc(c23)C1=O`, the result with Nucleic Acid [1], in the assay on Nucleic Acid [4], in the assay on Nucleic Acid [5], with Nucleic Acid [7], with Nucleic Acid [9] and in the assay with Nucleic Acid [10] was Active. In addition, the result in the assay on Nucleic Acid [13], in the assay with Nucleic Acid [17] and in the assay with Nucleic Acid [18] was Active. The ΔTm in assay [2] came out at 10.8 °C; in assay [3], 0 °C; in assay [6] it was 6 °C; in assay [8] it was 2 °C; in assay [11] it was 0 °C; in assay [12] it was 6.3 °C. In addition, the figures for the ΔTm in [14], in [15] and in assay [16] were 1.6 °C, 9.5 °C and 13.9 °C, respectively.
As for `CN(C)CCN1C(=O)c2cccc3cc(Cl)cc(c23)C1=O`, the outcome in the assay on Nucleic Acid [1], in the assay on Nucleic Acid [4], with Nucleic Acid [5], with Nucleic Acid [7], in the assay with Nucleic Acid [9] and in the assay with Nucleic Acid [10] was Active. Also, the outcome in the assay with Nucleic Acid [13], with Nucleic Acid [17] and in the assay with Nucleic Acid [18] was Active. In addition, the ΔTm in [2] worked out at 0 °C; in assay [3], 0 °C; in [6], 1.1 °C; in [8], 0 °C; in assay [11], 0 °C; in [12], 4.5 °C. Further, the ΔTm in [14] stood at 0 °C; in [15], 6.3 °C; in assay [16] it was 7 °C.
On to `CN(C)CCN1C(=O)c2cccc3cc(N)cc(c23)C1=O`, for which the outcome with Nucleic Acid [1], in the assay on Nucleic Acid [4], in the assay with Nucleic Acid [5], in the assay with Nucleic Acid [7], with Nucleic Acid [9] and with Nucleic Acid [10] was Active. Further, the result in the assay with Nucleic Acid [19], with Nucleic Acid [13], with Nucleic Acid [17] and in the assay on Nucleic Acid [18] was Active. The ΔTm stood at 10.1 °C in assay [2]; 0 °C in assay [3]; 5.1 °C in [6]; 1 °C in assay [8]; 0 °C in assay [11]; 11.6 °C in assay [12]. The ΔTm in [14] stood at 1.1 °C; in assay [15] it was 16.9 °C; in assay [16], 14.6 °C.
Consider `Cc1cc2c3c(cccc3c1)C(=O)N(CCN(C)C)C2=O`, for which the outcome with Nucleic Acid [1], in the assay on Nucleic Acid [4], in the assay on Nucleic Acid [5], in the assay on Nucleic Acid [7], in the assay on Nucleic Acid [9] and with Nucleic Acid [10] was Active. The result in the assay with Nucleic Acid [13], in the assay with Nucleic Acid [17] and in the assay on Nucleic Acid [18] was Active. Besides, the shift in melting temperature (ΔTm) in [2] was 0 °C; in [3], 0 °C; in assay [6], 2.7 °C; in assay [8] it was 0 °C; in assay [11], 0 °C; in assay [12], 0 °C. Further, the values for the ΔTm in assay [14], in [15] and in assay [16] were 0 °C, 3.2 °C and 5.1 °C, respectively.

The ΔTm is the shift of the melting midpoint relative to a reference.
